Test results as given in patent US20170231928A1, “SOLID COMPOSITION OF FINGOLIMOD AND PREPARATION THEREOF” (SUNSHINE LAKE PHARMA CO., LTD., priority 2014, published 2017).

Test: Excipient compatibility test: API and diluents, related substances
Format: physicochemical
Description: Some API and excipients mixture were weighed, placed in the vials, added with appropriate amount of purified water (w/w), and then sealed (simulated hot and humid environment) and placed in 60° C. oven. Sampled on the 10th day, and tested the content (%) of the related substances (single impurity and total impurities).

[1] = After 10 days (60° C.), water added, sealed

Related substances RRT = 0.84 (0 day): 0.06%
Related substances Total impurities (0 day): 0.06%
Related substances RRT = 0.84 [1]: 0.07%
Related substances RRT = 1.35 [1]: 0.03%
Related substances Total impurities [1]: 0.10%
Structure (SMILES): CCCCCCCCc1ccc(CCC(N)(CO)CO)cc1 [API, 2-amino-2-[2-(4-octylphenyl)ethyl]propan-1,3-diol]
